Laboratory results taken from US11795177B2, “Substituted quinoline analogs as aldehyde dehydrogenase 1A1 (ALDH1A1) inhibitors” (THE UNITED STATES OF AMERICA, AS REPRESENTED BY THE …, priority 2017, dated 2023).
Counter-ions that a name gives are not always drawn.

Columns and labels:
MIA PaCa-2 cells = assay: MIA PaCa2 cell-based assay (1,536-well high-content imaging ALDEFLUOR assay); design: species or system human; conditions: ALDEFLUOR BAAA substrate 500 nM, 30 minutes
Outline: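 High-content ALDEFLUOR imaging readout: BAA-retaining cells in FITC channel scored against Hoechst-counted nuclei. Before imaging, MIA PaCa-2 cells seeded at 1,000 per well received final 500 nM BAAA and 0.5 nM Hoechst with compounds in 16-point series (1.4 nM to 47.8 μM), 30 min, 37° C.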

ALDH1A1 enzyme = target: T1, ALDH1A1 enzyme (Homo sapiens, UniProt P00352); assay: ALDH1A1 enzymatic assay (in vitro); type: biochemical; conditions: ALDH1A1 enzyme 20 nM, NAD+ 1 mM, propionaldehyde 80 μM; read-out: ALDH1A1 IC50
T1 sequence (P00352 1-501): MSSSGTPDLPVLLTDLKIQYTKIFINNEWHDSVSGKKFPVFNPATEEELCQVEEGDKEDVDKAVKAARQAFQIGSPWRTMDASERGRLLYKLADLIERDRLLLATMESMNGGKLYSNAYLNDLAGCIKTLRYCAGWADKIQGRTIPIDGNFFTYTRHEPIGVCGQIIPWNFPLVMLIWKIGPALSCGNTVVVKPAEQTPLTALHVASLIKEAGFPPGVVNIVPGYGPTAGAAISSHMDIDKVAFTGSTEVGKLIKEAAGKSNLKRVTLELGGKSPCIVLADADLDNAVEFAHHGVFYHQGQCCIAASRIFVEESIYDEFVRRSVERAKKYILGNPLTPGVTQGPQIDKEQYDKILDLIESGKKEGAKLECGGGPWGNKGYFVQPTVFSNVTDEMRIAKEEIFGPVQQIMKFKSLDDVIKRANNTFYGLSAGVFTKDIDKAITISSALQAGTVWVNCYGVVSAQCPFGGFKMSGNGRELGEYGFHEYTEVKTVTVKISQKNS
Outline: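 ALDH1A1 (20 nM final) in 100 mM HEPES pH 7.5, 0.01% Tween 20 was preincubated 15 min at RT with compound (968 pM–57.2 μM final), then started with 1 mM NAD+ and 80 μM propionaldehyde. NADH fluorescence (ex 340/em 450 nm) followed kinetically for 10 min; change normalized to no-inhibitor and no-enzyme controls for percent inhibition and curve fitting.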

Row | IC50 (MIA PaCa-2 cells; Homo sapiens, 0.5 h) [nM] | IC50 (ALDH1A1 enzyme) [nM] | IC50 (MIA PaCa-2 cells) [nM] | Compound
1 | > 10000 | < 500 | – | O=C(c1cnc2cc(F)c(F)cc2c1N1CCC2(CC1)OCCO2)N1CCN(S(=O)(=O)N2CCCC2)CC1 [Example 173, (6,7-difluoro-4-(1,4-dioxa-8-azaspiro[4.5]decan-8-yl)quinolin-3-yl)(4-(pyrrolidin-1-ylsulfonyl)piperazin-1-yl)methanone]
2 | – | < 500 | < 500 | 4-(4-cyano-4-phenylpiperidin-1-yl)-6-fluoro-N-((1R,3R)-3-hydroxycyclobutyl)quinoline-3-carboxamide [Cpd. 330]
3 | > 10000 | 500 to 1000 | – | CCNC(=O)N1CCN(C(=O)c2cnc3c(F)cc(F)cc3c2N2CCC(C)(C#N)CC2)CC1 [Example 145, 4-(4-(4-cyano-4-methylpiperidin-1-yl)-6,8-difluoroquinoline-3-carbonyl)-N-ethylpiperazine-1-carboxamide]
4 | 1000 to 10000 | < 500 | – | CC1(C#N)CCN(c2c(C(=O)N3CCN(S(=O)(=O)C4CC4)CC3)cnc3ccc(Cl)cc23)CC1 [Example 120, 1-(6-chloro-3-(4-(cyclopropylsulfonyl)piperazine-1-carbonyl)quinolin-4-yl)-4-methylpiperidine-4-carbonitrile]
5 | > 10000 | 1000 to 10000 | – | COc1ccc2ncc(C(=O)N3CCN(C4CCCC4)CC3)c(N3CCC4(CC3)OCCO4)c2c1 [Example 9, (4-cyclopentylpiperazin-1-yl)(6-methoxy-4-(1,4-dioxa-8-azaspiro[4.5]decan-8-yl)quinolin-3-yl)methanone, TFA]
6 | < 500 | < 500 | – | CN(C)S(=O)(=O)N1CCN(C(=O)c2cnc3ccsc3c2-c2ccc(C3(C#N)CC3)cc2)CC1 [Example 284, 4-(7-(4-(1-cyanocyclopropyl)phenyl)thieno[3,2-b]pyridine-6-carbonyl)-N,N-dimethylpiperazine-1-sulfonamide]
7 | < 500 | < 500 | – | CC(=O)C1(c2ccccc2)CCN(c2c(C(=O)N3CCC(S(C)(=O)=O)CC3)cnc3ccc(F)cc23)CC1 [Example 273, 1-(1-(6-fluoro-3-(4-(methylsulfonyl)piperidine-1-carbonyl)quinolin-4-yl)-4-phenylpiperidin-4-yl)ethanone]
8 | 1000 to 10000 | < 500 | – | N#CC1(c2ccc(-c3c(C(=O)Nc4cnn(CC(=O)NC5CC5)c4)cnc4ccc(F)cc34)cc2)CC1 [Cpd. 344, 4-(4-(1-cyanocyclopropyl)phenyl)-N-(1-(2-(cyclopropylamino)-2-oxoethyl)-1H-pyrazol-4-yl)-6-fluoroquinoline-3-carboxamide]

Second part, the compound before the results:

Row | Compound | IC50 (MIA PaCa-2 cells; Homo sapiens, 0.5 h) [nM] | IC50 (ALDH1A1 enzyme) [nM] | IC50 (MIA PaCa-2 cells) [nM]
9 | CS(=O)(=O)N1CCN(C(=O)c2cnc3ccc(F)cc3c2N2CCN(C(=O)/C(C#N)=C/C3CC3)CC2)CC1 [Example 222, (e)-3-cyclopropyl-2-(4-(6-fluoro-3-(4-(methylsulfonyl)piperazine-1-carbonyl)quinolin-4-yl)piperazine-1-carbonyl)acrylonitrile] | > 10000 | < 500 | –
10 | CS(=O)(=O)C1CCN(C(=O)c2cnc3c(F)cc(F)cc3c2N2CCC3(CC2)OCCO3)CC1 [Example 186, (6,8-difluoro-4-(1,4-dioxa-8-azaspiro[4.5]decan-8-yl)quinolin-3-yl)(4-(methylsulfonyl)piperidin-1-yl)methanone] | 1000 to 10000 | < 500 | –
11 | CCN(CC)C(=O)N1CCN(C(=O)c2cnc3c(F)cc(F)cc3c2N2CCC(C)(C#N)CC2)CC1 [Example 164, 4-(4-(4-cyano-4-methylpiperidin-1-yl)-6,8-difluoroquinoline-3-carbonyl)-N,N-diethylpiperazine-1-carboxamide] | 1000 to 10000 | 500 to 1000 | –
12 | COc1ccc2ncc(C(=O)N3CCOCC3)c(N3CCC4(CC3)OCCO4)c2c1 [Example 39, (6-methoxy-4-(1,4-dioxa-8-azaspiro[4.5]decan-8-yl)quinolin-3-yl)(morpholino)methanone] | > 10000 | 500 to 1000 | –
13 | O=C(c1cnc2ccc(F)cc2c1N1CCC(O)(c2ccccc2)CC1)N1CCN(C(=O)C2CC2)CC1 [Example 291, (4-(cyclopropanecarbonyl)piperazin-1-yl)(6-fluoro-4-(4-hydroxy-4-phenylpiperidin-1-yl)quinolin-3-yl)methanone] | > 10000 | < 500 | –
14 | O=C(c1cnc2cc(F)c(F)cc2c1N1CCC2(CC1)OCCO2)N1CCN(C(=O)N2CCCC2)CC1 [Example 170, (6,7-difluoro-4-(1,4-dioxa-8-azaspiro[4.5]decan-8-yl)quinolin-3-yl)(4-(pyrrolidine-1-carbonyl)piperazin-1-yl)methanone] | 1000 to 10000 | < 500 | –
15 | N#CC1(c2ccccc2)CCN(c2c(C(=O)N3CCC(O)(C4CC4)CC3)cnc3ccc(F)cc23)CC1 [Cpd. 348, 1-(3-(4-cyclopropyl-4-hydroxypiperidine-1-carbonyl)-6-fluoroquinolin-4-yl)-4-phenylpiperidine-4-carbonitrile] | < 500 | < 500 | –
16 | COc1ccc2ncc(C(=O)N3CCN(C(C)=O)CC3)c(N3CCC4(CC3)OCCO4)c2c1 [Example 38, 1-(4-(6-methoxy-4-(1,4-dioxa-8-azaspiro[4.5]decan-8-yl)quinoline-3-carbonyl)piperazin-1-yl)ethanone] | 1000 to 10000 | < 500 | –
17 | CN(C)C(=O)Cn1cc(NC(=O)c2cnc3ccc(F)cc3c2N2CCC(C#N)(c3ccccc3)CC2)cn1 [Cpd. 339, 4-(4-cyano-4-phenylpiperidin-1-yl)-N-(1-(2-(dimethylamino)-2-oxoethyl)-1H-pyrazol-4-yl)-6-fluoroquinoline-3-carboxamide] | < 500 | < 500 | –
18 | CN(C)C(=O)N1CCN(C(=O)c2cnc3c(F)cc(F)cc3c2N2CCC3(CC2)OCCO3)CC1 [Example 180, 4-(6,8-difluoro-4-(1,4-dioxa-8-azaspiro[4.5]decan-8-yl)quinoline-3-carbonyl)-N,N-dimethylpiperazine-1-carboxamide] | 1000 to 10000 | < 500 | –
19 | CC1(C#N)CCN(c2c(C(=O)N3CCN(C(=O)N4CCCC4)CC3)cnc3ccc(F)cc23)CC1 [Example 155, 1-(6-fluoro-3-(4-(pyrrolidine-1-carbonyl)piperazine-1-carbonyl)quinolin-4-yl)-4-methylpiperidine-4-carbonitrile] | > 10000 | 1000 to 10000 | –
20 | O=C(c1cnc2ccc(F)cc2c1N1CCC2(CC1)COC2)N1CCN(C(=O)C2CC2)CC1 [Example 68, (4-(cyclopropanecarbonyl)piperazin-1-yl)(6-fluoro-4-(2-oxa-7-azaspiro[3.5]nonan-7-yl)quinolin-3-yl)methanone] | > 10000 | 1000 to 10000 | –
21 | CC1(C#N)CCN(c2c(C(=O)N3CCN(C(=O)C4CC4)CC3)cnc3c(F)c(F)c(F)cc23)CC1 [Example 128, 1-(3-(4-(cyclopropanecarbonyl)piperazine-1-carbonyl)-6,7,8-trifluoroquinolin-4-yl)-4-methylpiperidine-4-carbonitrile] | 1000 to 10000 | < 500 | –
22 | CCNC(=O)N1CCN(C(=O)c2cnc3cc(OC)c(OC)cc3c2N2CCC3(CC2)OCCO3)CC1 [Example 140, 4-(6,7-dimethoxy-4-(1,4-dioxa-8-azaspiro[4.5]decan-8-yl)quinoline-3-carbonyl)-N-ethylpiperazine-1-carboxamide] | > 10000 | < 500 | –
23 | CN(C)C(=O)N1CCN(C(=O)c2cnc3ccsc3c2-c2ccc(C3(C#N)CC3)cc2)CC1 [Example 281, 4-(7-(4-(1-cyanocyclopropyl)phenyl)thieno[3,2-b]pyridine-6-carbonyl)-N,N-dimethylpiperazine-1-carboxamide] | < 500 | < 500 | –
24 | N#CC1(O)CCN(C(=O)c2cnc3ccc(F)cc3c2N2CCC(C#N)(c3ccccc3)CC2)CC1 [Cpd. 341, 1-(3-(4-cyano-4-hydroxypiperidine-1-carbonyl)-6-fluoroquinolin-4-yl)-4-phenylpiperidine-4-carbonitrile] | 500 to 1000 | < 500 | –
25 | CCOC(=O)N1CCN(C(=O)c2cnc3cc(OC)ccc3c2N2CCC(C)(C#N)CC2)CC1 [Example 108, Ethyl 4-(4-(4-cyano-4-methylpiperidin-1-yl)-7-methoxyquinoline-3-carbonyl)piperazine-1-carboxylate] | 1000 to 10000 | < 500 | –
26 | COc1ccc2ncc(C(=O)N3CCN(C(=O)C4CC4)CC3)c(N3CCN(S(C)(=O)=O)CC3)c2c1 [Example 19, (4-(cyclopropanecarbonyl)piperazin-1-yl)(6-methoxy-4-(4-(methylsulfonyl)piperazin-1-yl)quinolin-3-yl)methanone, TFA] | 1000 to 10000 | 1000 to 10000 | –
